Tests used:
Type in all cases: cell-based
human H1 receptor [1] = biological target: T1, human H1 receptor (Homo sapiens, UniProt P35367); assay: Histamine H1 functional antagonist assay (FLIPR): determination of antagonist pA2; conditions: CHO cells expressing H1 receptor, shift of histamine concentration response curve
T1 construct: expressed in transfected cells
Experimental: The human H1 receptor is cloned using known procedures described in the literature [Biochem. Biophys. Res. Commun., 201(2):894 (1994)]. Chinese hamster ovary (CHO) cells stably expressing the human H1 receptor are generated according to known procedures described in the literature [Br. J. Pharmacol., 117(6):1071 (1996)]. The histamine H1 receptor expressing CHO cells are seeded into non-coated black-walled clear bottom 96-well tissue culture plates as described above. Following overnight culture, growth medium is removed from each well, washed with 200 μl PBS and is replaced with 50 μl loading dye (250 μM Brilliant Black, 1 μM Fluo-4 diluted in Tyrodes buffer+probenecid (145 mM NaCl, 2.5 mM KCl, 10 mM HEPES, 10 mM D-glucose, 1.2 mM MgCl2, 1.5 mM CaCl2, 2.5 mM probenecid, pH adjusted to 7.40 with NaOH 1.0 M)). Cells are incubated for 45 min at 37° C. The loading buffer is removed and the cells are washed as above, and 90 μl of Tyrodes buffer+probenecid is added to each well. 10 μl of test compound, diluted to the required concentration in Tyrodes buffer+probenecid (or 10 μl Tyrodes buffer+probenecid as a control) is added to each well and the plate is incubated for 30 min at 37° C., 5% CO2. The plates are then placed into a FLIPR™ (Molecular Devices, UK) to monitor cell fluorescence (λex=488 nm, λEM=540 nm) in the manner described in Sullivan et al., (In: Lambert DG (ed.), Calcium Signaling Protocols, New Jersey: Humana Press, 1999, 125-136) before and after the addition of 50 μl histamine over a concentration range of 1 mM-0.1 nM. The resultant concentration response curves are analysed by non-linear regression using a standard four parameter logistic equation to determine the histamine EC50, the concentration of histamine required to produce a response of 50% of the maximum response to histamine. The antagonist pA2 is calculated using the following standard equation: pA2=log(DR-1)−log [B] where DR=dose ratio, defined as EC50antagonist-treated/EC50control and [B]=concentration of antagonist.

human H1 receptor [2] = biological target: T1, human H1 receptor; assay: Histamine H1 functional antagonist assay (FLIPR): determination of functional pKi values; conditions: CHO cells expressing human H1 receptor, histamine at EC80, read-out: average pKa (pKb) at H1 (converted)
Experimental: (§1) The human H1 receptor is cloned using known procedures described in the literature [Biochem. Biophys. Res. Commun., 201(2):894 (1994)]. Chinese hamster ovary (CHO) cells stably expressing the human H1 receptor are generated according to known procedures described in the literature [Br. J. Pharmacol., 117(6):1071 (1996)].
The histamine H1 cell line is seeded into non-coated black-walled clear bottom 384-well tissue culture plates in alpha minimum essential medium (Gibco/Invitrogen, cat no. 22561-021), supplemented with 10% dialysed foetal calf serum (Gibco/Invitrogen cat no. 12480-021) and 2 mM L-glutamine (Gibco/Invitrogen cat no 25030-024) and is maintained overnight at 5% CO2, 37° C.
Excess medium is removed from each well to leave 10 μl. 30 μl loading dye (250 μM Brilliant Black, 2 μM Fluo-4 diluted in Tyrodes buffer+probenecid (145 mM NaCl, 2.5 mM KCl, 10 mM HEPES, 10 mM D-glucose, 1.2 mM MgCl2, 1.5 mM CaCl2, 2.5 mM probenecid, pH adjusted to 7.40 with NaOH 1.0 M)) is added to each well and the plates are incubated for 60 min at 5% CO2, 37° C.
10 μl of test compound, diluted to the required concentration in Tyrodes buffer+probenecid (or 10 μl Tyrodes buffer+probenecid as a control) is added to each well and the plate is incubated for 30 min at 37° C., 5% CO2. The plates are then placed into a FLIPR™ (Molecular Devices, UK) to monitor cell fluorescence (λex=488 nm, λEM=540 nm) in the manner described in Sullivan et al., (In: Lambert DG (ed.), Calcium Signaling Protocols, New Jersey: Humana Press, 1999, 125-136) before and after the addition of 10 μl histamine at a concentration that results in the final assay concentration of histamine being EC80.
Functional antagonism is indicated by a suppression of histamine induced increase in fluorescence, as measured by the FLIPR™ system (Molecular Devices). By means of concentration effect curves, functional affinities are determined using standard pharmacological mathematical analysis.

human H1 receptor [3] = biological target: T1, human H1 receptor; assay: Histamine H1 functional antagonist assay (FLIPR): antagonist duration after washout; conditions: at one or more time points, typically 30-270 min
Experimental: as §1
To determine the antagonist duration, cells are cultured overnight in non-coated black-walled clear bottom 96-well tissue culture plates, are washed with PBS and are incubated with a concentration of antagonist chosen to give an approximate DR in the range 30-300. Following the 30 min antagonist incubation period, the cells are washed two or three times with 200 μl of PBS and then 100 μl Tyrodes buffer is added to each well to initiate antagonist dissociation. Following incubation for predetermined times, typically 30-270 min at 37° C., the cells are then washed again with 200 μl PBS and are incubated with 100 μl Tyrodes buffer containing Brilliant Black, probenecid and Fluo-4 for 45 min at 37° C., as described above. After this period, the cells are challenged with histamine in the FLIPR™ as described above. The dose ratio at each time point is used to determine the fractional H1 receptor occupancy by the following equation: fractional receptor occupancy=(DR-1)/DR. The decrease in receptor occupancy over time approximates to a straight line and is analysed by linear regression. The slope of this straight line fit is used as an index of the dissociation rate of the antagonist. The dose ratios for antagonist treated cells and for antagonist treated and washed cells at each time point are used to calculate a relative dose ratio (rel DR) which is also used as an index of antagonist duration. Antagonists with long duration of action produce rel DR values close to 1, and antagonists with short duration of action produce rel DR values that approaches the dose ratio value obtained for antagonist treatment alone.

T1 sequence (P35367 whole entry): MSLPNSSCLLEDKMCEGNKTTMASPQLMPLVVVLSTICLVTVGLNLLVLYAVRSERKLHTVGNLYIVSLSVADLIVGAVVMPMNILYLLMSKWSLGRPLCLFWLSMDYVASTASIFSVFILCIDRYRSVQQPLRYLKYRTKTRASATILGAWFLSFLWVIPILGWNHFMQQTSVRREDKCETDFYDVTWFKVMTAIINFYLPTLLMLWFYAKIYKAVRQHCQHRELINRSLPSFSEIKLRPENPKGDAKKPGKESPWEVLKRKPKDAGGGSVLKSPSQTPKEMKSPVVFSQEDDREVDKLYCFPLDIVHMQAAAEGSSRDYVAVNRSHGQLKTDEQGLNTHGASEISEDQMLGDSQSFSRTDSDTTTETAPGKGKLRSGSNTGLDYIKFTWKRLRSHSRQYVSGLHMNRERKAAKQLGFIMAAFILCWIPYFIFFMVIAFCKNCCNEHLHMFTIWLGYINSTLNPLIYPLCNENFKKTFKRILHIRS

Kb (human H1 receptor [1]) [nM] | Kb (human H1 receptor [2]) [nM] | Compound | duration of action compared with azelastine (human H1 receptor [3])
< 1 |  | CCS(=O)(=O)CCN1CCC[C@@H]1Cn1nc(Cc2ccc(Cl)cc2)c2ccccc2c1=O [Example 1, 4-[(4-Chlorophenyl)methyl]-2-({(2R)-1-[2-(ethylsulfonyl)ethyl]-2-pyrrolidinyl}methyl)-1(2H)-phthalazinone] | 
 | < 100 | O=c1c2ccccc2c(Cc2ccc(Cl)cc2)nn1C[C@H]1CCCN1CCS(=O)(=O)N1CCCCC1 [Example 2, 4-[(4-Chlorophenyl)methyl]-2-({(2R)-1-[2-(1-piperidinylsulfonyl)ethyl]-2-pyrrolidinyl}methyl)-1(2H)-phthalazinone] | 
< 1 |  | CCS(=O)(=O)CCCN1CCC[C@@H]1Cn1nc(Cc2ccc(Cl)cc2)c2ccccc2c1=O [Example 3, 4-[(4-Chlorophenyl)methyl]-2-({(2R)-1-[3-(ethylsulfonyl)propyl]-2-pyrrolidinyl}methyl)-1(2H)-phthalazinone] | longer duration of action than azelastine
< 1 |  | CCS(=O)(=O)C(C)CCN1CCC[C@@H]1Cn1nc(Cc2ccc(Cl)cc2)c2ccccc2c1=O (stereo partly drawn) [Example 4, 4-[(4-Chlorophenyl)methyl]-2-({(2R)-1-[3-(ethylsulfonyl)butyl]-2-pyrrolidinyl}methyl)-1(2H)-phthalazinone] | 
< 10 |  | CCS(=O)(=O)[C@@H](C)CCN1CCC[C@@H]1Cn1nc(Cc2ccc(Cl)cc2)c2ccccc2c1=O [Example 5A, 4-[(4-Chlorophenyl)methyl]-2-({(2R)-1-[(3S)-3-(ethylsulfonyl)butyl]-2-pyrrolidinyl}methyl)-(2H)-phthalazinone] | 
< 10 |  | CCS(=O)(=O)[C@H](C)CCN1CCC[C@@H]1Cn1nc(Cc2ccc(Cl)cc2)c2ccccc2c1=O [Example 5B, 4-[(4-Chlorophenyl)methyl]-2-({(2R)-1-[(3R)-3-(ethylsulfonyl)butyl]-2-pyrrolidinyl}methyl)-(2H)-phthalazinone] | 
< 1 |  | CCS(=O)(=O)NCCN1CCC[C@@H]1Cn1nc(Cc2ccc(Cl)cc2)c2ccccc2c1=O [Example 6, N-[2-((2R)-2-{[4-[(4-Chlorophenyl)methyl]-1-oxo-2(1H)-phthalazinyl]methyl}-1-pyrrolidinyl)ethyl]ethanesulfonamide] | longer duration of action than azelastine
< 1 | < 100 | CCCS(=O)(=O)NCCN1CCC[C@@H]1Cn1nc(Cc2ccc(Cl)cc2)c2ccccc2c1=O [Example 7, N-[2-((2R)-2-{[4-[(4-Chlorophenyl)methyl]-1-oxo-2(1H)-phthalazinyl]methyl}-1-pyrrolidinyl)ethyl]-1-propanesulfonamide] | longer duration of action than azelastine
< 1 | < 100 | CC(C)S(=O)(=O)NCCN1CCC[C@@H]1Cn1nc(Cc2ccc(Cl)cc2)c2ccccc2c1=O [Example 8, N-[2-((2R)-2-{[4-[(4-Chlorophenyl)methyl]-1-oxo-2(1H)-phthalazinyl]methyl}-1-pyrrolidinyl)ethyl]-2-propanesulfonamide] | longer duration of action than azelastine
< 10 | < 100 | COCCCNS(=O)(=O)CCN1CCC[C@@H]1Cn1nc(Cc2ccc(Cl)cc2)c2ccccc2c1=O [Example 10, 2-((2R)-2-{[4-[(4-Chlorophenyl)methyl]-1-oxo-2(1H)-phthalazinyl]methyl}-1-pyrrolidinyl)-N-[3-(methyloxy)propyl]ethanesulfonamide] | longer duration of action than azelastine
< 1 |  | CCCNC(=O)NCCN1CCC[C@@H]1Cn1nc(Cc2ccc(Cl)cc2)c2ccccc2c1=O [Example 11, N-[2-((2R)-2-{[4-[(4-Chlorophenyl)methyl]-1-oxo-2(1H)-phthalazinyl]methyl}-1-pyrrolidinyl)ethyl]-M-propylurea] | longer duration of action than azelastine
< 1 |  | CCS(=O)(=O)CCCN1CCC[C@@H]1Cn1nc(Cc2ccc(Cl)cc2)c2cnccc2c1=O [Example 12, 4-[(4-Chlorophenyl)methyl]-2-({(2R)-1-[3-(ethylsulfonyl)propyl]-2-pyrrolidinyl}methyl)pyrido[3,4-d]pyridazin-1(2H)-one] | longer duration of action than azelastine
< 10 |  | CCS(=O)(=O)CCN1CCC[C@@H]1Cn1nc(Cc2ccc(Cl)cc2)c2cnccc2c1=O [Example 13, 4-[(4-Chlorophenyl)methyl]-2-({(2R)-1-[2-(ethylsulfonyl)ethyl]-2-pyrrolidinyl}methyl)pyrido[3,4-d]pyridazin-1(2H)-one] | 
< 1 |  | CCCNC(=O)NCCN1CCC[C@@H]1Cn1nc(Cc2ccc(Cl)cc2)c2cnccc2c1=O [Example 14, N-[2-((2R)-2-{[4-[(4-chlorophenyl)methyl]-1-oxopyrido[3,4-d]pyridazin-2(1H)-yl]methyl}-1-pyrrolidinyl)ethyl]-M-propylurea] | 

Source: patent US20100216799A1, “PHTHALAZINE AND PYRIDO[3,4-D]PYRIDAZINE COMPOUNDS AS H1 RECEPTOR ANTAGONISTS” (Glaxo Group Limited, priority 2007, published 2010)
